This passage reports IC50 results from paper doi:10.1101/2024.08.13.607785v1 (biorxiv, 2024).

As a reminder, the IC50 is the concentration needed to halve the response being measured. A lower IC50 goes with inhibition by little substance.

Bounds are passed on as bounds.

Common to all, as to assay: biochemical
Holding throughout (parameters): species or system human cell line lysate

Experiment [1] concerns the target Cyclin-dependent kinase 10 ; CDK10 ; Q15131 (Homo sapiens, UniProt Q15131).
Experiment [2] deals with Cyclin-dependent-like kinase 5 ; CDK5 ; Q00535 (Homo sapiens, UniProt Q00535).
Sequence of Cyclin-dependent-like kinase 5 ; CDK5 ; Q00535 (Q00535 whole entry, one chain of several): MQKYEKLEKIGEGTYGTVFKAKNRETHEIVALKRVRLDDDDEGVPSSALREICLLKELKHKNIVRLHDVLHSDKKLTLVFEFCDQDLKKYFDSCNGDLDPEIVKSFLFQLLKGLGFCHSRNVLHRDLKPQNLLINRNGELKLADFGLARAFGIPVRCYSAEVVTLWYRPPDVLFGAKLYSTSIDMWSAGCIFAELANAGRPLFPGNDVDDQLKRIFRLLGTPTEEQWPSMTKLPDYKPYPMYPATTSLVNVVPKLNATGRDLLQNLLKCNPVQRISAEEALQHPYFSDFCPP
For experiment [3], the target named is Cyclin-dependent kinase 16 ; CDK16 ; Q00536 (Homo sapiens, UniProt Q00536).
Sequence of Cyclin-dependent kinase 16 ; CDK16 ; Q00536 (Q00536 whole entry, one chain of several): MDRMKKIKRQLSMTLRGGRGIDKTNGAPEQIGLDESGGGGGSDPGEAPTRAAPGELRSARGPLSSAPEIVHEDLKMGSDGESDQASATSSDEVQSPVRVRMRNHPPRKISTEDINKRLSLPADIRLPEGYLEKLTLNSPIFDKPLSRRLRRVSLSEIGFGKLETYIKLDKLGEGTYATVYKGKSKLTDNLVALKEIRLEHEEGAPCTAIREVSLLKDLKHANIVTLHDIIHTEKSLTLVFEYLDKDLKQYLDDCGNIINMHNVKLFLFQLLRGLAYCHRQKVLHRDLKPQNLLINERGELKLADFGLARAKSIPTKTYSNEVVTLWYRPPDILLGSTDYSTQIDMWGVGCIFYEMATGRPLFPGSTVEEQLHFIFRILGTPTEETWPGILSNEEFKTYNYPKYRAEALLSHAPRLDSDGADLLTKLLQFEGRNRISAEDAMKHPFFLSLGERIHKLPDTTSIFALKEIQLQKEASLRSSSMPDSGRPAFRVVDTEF
In experiment [4] the target is High affinity nerve growth factor receptor ; NTRK1 ; P04629 (Homo sapiens, UniProt P04629).
Sequence of High affinity nerve growth factor receptor ; NTRK1 ; P04629 (P04629 whole entry, the tested form may be a part): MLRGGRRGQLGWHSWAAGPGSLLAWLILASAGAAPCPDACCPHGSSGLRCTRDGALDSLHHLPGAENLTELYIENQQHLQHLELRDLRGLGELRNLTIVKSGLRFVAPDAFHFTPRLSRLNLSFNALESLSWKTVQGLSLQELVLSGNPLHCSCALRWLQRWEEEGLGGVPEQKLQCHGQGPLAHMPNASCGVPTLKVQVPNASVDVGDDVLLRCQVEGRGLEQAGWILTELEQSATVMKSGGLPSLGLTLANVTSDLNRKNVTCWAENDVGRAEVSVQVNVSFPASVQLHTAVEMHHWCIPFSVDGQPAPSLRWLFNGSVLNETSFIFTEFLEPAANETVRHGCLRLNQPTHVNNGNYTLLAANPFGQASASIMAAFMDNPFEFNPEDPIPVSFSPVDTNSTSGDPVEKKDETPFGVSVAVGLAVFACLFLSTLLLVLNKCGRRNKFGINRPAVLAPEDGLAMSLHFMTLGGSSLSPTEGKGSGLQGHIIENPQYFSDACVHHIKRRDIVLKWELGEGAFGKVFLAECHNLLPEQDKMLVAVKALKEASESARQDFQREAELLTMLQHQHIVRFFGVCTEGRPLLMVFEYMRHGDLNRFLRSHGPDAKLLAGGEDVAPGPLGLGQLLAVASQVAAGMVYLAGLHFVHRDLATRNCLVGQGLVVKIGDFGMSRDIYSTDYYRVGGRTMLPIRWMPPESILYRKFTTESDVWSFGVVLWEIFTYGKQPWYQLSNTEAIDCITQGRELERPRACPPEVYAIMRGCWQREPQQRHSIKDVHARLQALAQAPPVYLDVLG
Experiment [5] addresses T1, Discoidin domain-containing receptor 2 ; DDR2 ; Q16832 (Homo sapiens, UniProt Q16832).
T1 sequence (Q16832 1-855): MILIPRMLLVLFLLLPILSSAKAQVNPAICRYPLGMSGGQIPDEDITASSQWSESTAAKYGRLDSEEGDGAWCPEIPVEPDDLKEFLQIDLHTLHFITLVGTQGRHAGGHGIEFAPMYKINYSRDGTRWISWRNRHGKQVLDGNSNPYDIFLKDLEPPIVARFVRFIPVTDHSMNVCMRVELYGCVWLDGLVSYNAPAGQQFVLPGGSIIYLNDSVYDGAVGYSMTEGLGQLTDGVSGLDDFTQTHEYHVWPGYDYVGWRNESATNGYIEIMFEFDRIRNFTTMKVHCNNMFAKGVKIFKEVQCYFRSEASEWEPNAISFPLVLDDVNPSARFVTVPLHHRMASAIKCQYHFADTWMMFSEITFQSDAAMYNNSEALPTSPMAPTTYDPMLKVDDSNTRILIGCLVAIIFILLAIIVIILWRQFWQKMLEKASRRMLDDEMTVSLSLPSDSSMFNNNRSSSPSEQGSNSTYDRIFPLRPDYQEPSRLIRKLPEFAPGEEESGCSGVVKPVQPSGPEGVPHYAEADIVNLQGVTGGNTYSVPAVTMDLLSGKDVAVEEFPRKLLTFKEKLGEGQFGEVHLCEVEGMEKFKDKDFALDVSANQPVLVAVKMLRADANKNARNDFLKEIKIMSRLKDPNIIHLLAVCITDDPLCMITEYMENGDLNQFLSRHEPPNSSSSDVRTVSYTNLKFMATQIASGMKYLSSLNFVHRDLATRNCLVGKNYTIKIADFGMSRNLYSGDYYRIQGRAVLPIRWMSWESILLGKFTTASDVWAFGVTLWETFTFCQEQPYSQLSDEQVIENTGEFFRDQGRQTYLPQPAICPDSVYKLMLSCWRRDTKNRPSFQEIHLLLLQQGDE

Experiment [6] addresses Cyclin-dependent kinase 12 ; CDK12 ; Q9NYV4 (Homo sapiens, UniProt Q9NYV4).
Experiment [7] concerns the target Isoform 4 of TRAF2 and NCK-interacting protein kinase ; TNIK ; Q9UKE5-4 (Homo sapiens, UniProt Q9UKE5).
Experiment [8] addresses Epithelial discoidin domain-containing receptor 1 ; DDR1 ; Q08345 (Homo sapiens, UniProt Q08345).

Sequence of Epithelial discoidin domain-containing receptor 1 ; DDR1 ; Q08345 (Q08345 whole entry, the tested form may be a part): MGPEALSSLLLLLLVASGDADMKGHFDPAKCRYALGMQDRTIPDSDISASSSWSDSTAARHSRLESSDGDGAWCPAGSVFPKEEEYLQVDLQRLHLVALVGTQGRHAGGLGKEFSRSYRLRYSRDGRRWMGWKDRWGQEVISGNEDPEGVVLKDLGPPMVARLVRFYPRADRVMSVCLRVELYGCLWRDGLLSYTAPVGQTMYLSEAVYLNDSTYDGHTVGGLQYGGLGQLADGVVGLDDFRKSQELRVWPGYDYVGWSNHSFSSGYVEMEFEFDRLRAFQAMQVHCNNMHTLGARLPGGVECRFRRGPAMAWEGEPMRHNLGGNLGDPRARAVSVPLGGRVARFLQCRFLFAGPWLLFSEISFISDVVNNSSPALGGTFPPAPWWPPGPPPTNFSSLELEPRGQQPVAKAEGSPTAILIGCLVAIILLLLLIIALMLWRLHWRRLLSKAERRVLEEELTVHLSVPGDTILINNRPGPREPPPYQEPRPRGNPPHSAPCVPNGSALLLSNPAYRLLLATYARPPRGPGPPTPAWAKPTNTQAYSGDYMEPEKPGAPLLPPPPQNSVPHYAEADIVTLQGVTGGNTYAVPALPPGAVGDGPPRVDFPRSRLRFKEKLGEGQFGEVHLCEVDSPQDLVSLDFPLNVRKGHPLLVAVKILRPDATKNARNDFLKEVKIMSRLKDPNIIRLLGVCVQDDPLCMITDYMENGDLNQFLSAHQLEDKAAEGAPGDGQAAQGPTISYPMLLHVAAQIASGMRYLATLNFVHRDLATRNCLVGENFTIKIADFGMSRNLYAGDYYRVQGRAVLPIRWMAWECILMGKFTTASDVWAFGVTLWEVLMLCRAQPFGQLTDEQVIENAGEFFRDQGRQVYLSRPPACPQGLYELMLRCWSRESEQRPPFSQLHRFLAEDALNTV
Sequence of Cyclin-dependent kinase 10 ; CDK10 ; Q15131 (Q15131 whole entry, one chain of several): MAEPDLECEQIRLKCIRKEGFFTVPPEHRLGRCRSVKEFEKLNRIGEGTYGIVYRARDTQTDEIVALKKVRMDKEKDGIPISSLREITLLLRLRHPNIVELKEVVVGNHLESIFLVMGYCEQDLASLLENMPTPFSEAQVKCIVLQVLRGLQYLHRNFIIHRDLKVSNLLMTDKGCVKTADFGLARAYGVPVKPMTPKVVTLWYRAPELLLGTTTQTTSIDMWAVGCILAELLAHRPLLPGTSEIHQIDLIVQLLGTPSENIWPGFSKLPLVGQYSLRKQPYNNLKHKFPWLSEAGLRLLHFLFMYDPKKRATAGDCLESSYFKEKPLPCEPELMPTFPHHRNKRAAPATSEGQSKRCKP
Sequence of Isoform 4 of TRAF2 and NCK-interacting protein kinase ; TNIK ; Q9UKE5-4 (Q9UKE5 whole entry, the tested form may be a part, canonical isoform, one chain of several): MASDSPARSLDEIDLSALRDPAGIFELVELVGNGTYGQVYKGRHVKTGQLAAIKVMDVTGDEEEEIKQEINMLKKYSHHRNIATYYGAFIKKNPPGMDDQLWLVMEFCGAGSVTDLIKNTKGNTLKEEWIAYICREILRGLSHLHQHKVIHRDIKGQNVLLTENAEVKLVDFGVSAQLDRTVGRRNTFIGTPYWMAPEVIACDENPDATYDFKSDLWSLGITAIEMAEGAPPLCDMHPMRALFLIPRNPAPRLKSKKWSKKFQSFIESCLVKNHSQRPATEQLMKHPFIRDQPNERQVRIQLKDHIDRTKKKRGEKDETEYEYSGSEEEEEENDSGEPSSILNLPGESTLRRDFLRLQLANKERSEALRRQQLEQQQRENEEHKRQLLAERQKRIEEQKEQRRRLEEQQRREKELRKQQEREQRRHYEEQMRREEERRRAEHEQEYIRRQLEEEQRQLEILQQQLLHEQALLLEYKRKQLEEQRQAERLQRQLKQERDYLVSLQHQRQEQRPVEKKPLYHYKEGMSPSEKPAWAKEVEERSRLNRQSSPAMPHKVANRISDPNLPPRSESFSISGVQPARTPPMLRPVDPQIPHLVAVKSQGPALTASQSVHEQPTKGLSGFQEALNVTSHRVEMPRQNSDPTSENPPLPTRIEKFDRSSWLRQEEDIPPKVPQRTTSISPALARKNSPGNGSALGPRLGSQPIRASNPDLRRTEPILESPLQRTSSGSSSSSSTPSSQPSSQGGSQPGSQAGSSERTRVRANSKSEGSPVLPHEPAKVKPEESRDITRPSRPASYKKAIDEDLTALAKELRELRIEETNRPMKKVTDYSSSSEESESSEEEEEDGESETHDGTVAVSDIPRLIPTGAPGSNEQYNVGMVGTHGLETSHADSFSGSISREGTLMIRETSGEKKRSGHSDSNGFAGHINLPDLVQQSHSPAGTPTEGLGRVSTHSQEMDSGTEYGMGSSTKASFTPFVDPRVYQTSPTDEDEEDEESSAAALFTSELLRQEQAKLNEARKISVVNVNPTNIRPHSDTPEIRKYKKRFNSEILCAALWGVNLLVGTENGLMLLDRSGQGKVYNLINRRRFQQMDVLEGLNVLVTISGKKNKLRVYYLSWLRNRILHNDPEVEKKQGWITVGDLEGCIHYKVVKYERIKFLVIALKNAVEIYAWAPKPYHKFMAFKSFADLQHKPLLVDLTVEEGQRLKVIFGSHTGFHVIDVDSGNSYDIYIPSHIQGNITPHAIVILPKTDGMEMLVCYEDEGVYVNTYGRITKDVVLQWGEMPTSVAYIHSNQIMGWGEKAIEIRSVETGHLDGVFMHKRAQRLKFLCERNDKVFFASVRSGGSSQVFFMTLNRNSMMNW

As to `COc1cc(F)ccc1-c1cc(Nc2cc(CS(C)(=N)=O)ccn2)ncc1F` (centres unmarked) [BAY-1251152], the IC50 is 1.09 µM in experiment [1] and more than 10 µM in experiment [2].

As to `COc1cc(F)ccc1-c1ncnc(Nc2cccc(C[S@](C)(=N)=O)c2)n1` [BAY-1143572], the IC50 in experiment [3], in experiment [4], in experiment [5], in experiment [6], in experiment [7] and in experiment [8] was more than 10 µM in each case.
